From PubChem BioAssay AID1919003 (Molecular Pharmacology Branch, DTP, NCI, 2023)
Values joined by “and” are separate entries in the source; they are usually repeats but may differ in a detail not shown here. Equal entries are not always repeated.

Test system: 786-0 complex spheroids with HUVEC/MSC, growth % test/control
Assay: Anticancer human tumor 786-0 cell line growth inhibition [AhR];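 note: compound exposure lasted seven days before the read-out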
Settings: for viability, T/C: stronger effect = lower value; active = viability on the fitted dose curve at most 10% of control; inactive = the rest
Outline: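 Agents were dosed in half-log steps down from roughly clinical Cmax, or from 10 microM where Cmax was unknown, alone and with AhR antagonists. Read-out: percent test/control growth of tumor spheroids containing HUVEC and MSC stromal cells.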

[1] = curve of first compound, second compound 0.1 µM
[2] = curve of first compound, second compound 0.316 µM
[3] = curve of first compound, second compound 1 µM
[4] = curve of first compound, second compound 3.16 µM
[5] = curve of first compound, second compound 10 µM
[6] = second compound 0.1 µM, first compound 0.0316 µM
[7] = second compound 0.1 µM, first compound 0.1 µM
[8] = second compound 0.316 µM, first compound 0.0316 µM
[9] = second compound 0.316 µM, first compound 0.1 µM
[10] = second compound 1 µM, first compound 0.0316 µM
[11] = second compound 1 µM, first compound 0.1 µM
[12] = second compound 3.16 µM, first compound 0.0316 µM
[13] = second compound 3.16 µM, first compound 0.1 µM
[14] = second compound 10 µM, first compound 0.0316 µM
[15] = second compound 10 µM, first compound 0.1 µM
[16] = second compound 0.1 µM, first compound 0.316 µM
[17] = second compound 0.1 µM, first compound 1 µM
[18] = second compound 0.1 µM, first compound 3.16 µM
[19] = second compound 0.1 µM, first compound 10 µM
[20] = second compound 0.316 µM, first compound 0.316 µM
[21] = second compound 0.316 µM, first compound 1 µM
[22] = second compound 0.316 µM, first compound 3.16 µM
[23] = second compound 0.316 µM, first compound 10 µM
[24] = second compound 1 µM, first compound 0.316 µM
[25] = second compound 1 µM, first compound 1 µM
[26] = second compound 1 µM, first compound 3.16 µM
[27] = second compound 1 µM, first compound 10 µM
[28] = second compound 3.16 µM, first compound 0.316 µM
[29] = second compound 3.16 µM, first compound 1 µM
[30] = second compound 3.16 µM, first compound 3.16 µM
[31] = second compound 3.16 µM, first compound 10 µM
[32] = second compound 10 µM, first compound 0.316 µM
[33] = second compound 10 µM, first compound 1 µM
[34] = second compound 10 µM, first compound 3.16 µM
[35] = second compound 10 µM, first compound 10 µM

CC[C@@]1(O)C(=O)OCc2c1cc1n(c2=O)Cc2cc3c(CN(C)C)c(O)ccc3nc2-1 + Cc1cncc(-c2nc(NCCc3c[nH]c4ccccc34)c3ncn(C(C)C)c3n2)c1
56.1 nM: IC50 [3]
active: viability, T/C [13] 9.39% | viability, T/C (second compound 10 µM, first compound 0.00316 µM) 11.8% | viability, T/C (second compound 10 µM, first compound 0.01 µM) 4.85% | viability, T/C [14] 1.61% | viability, T/C [15] 0.53%
64.2 nM: IC50 [2]
inactive: viability, T/C (second compound 0.1 µM, first compound 0.000316 µM) 116% | viability, T/C (second compound 0.1 µM, first compound 0.001 µM) 118% | viability, T/C (second compound 0.1 µM, first compound 0.00316 µM) 117% | viability, T/C (second compound 0.1 µM, first compound 0.01 µM) 115% | viability, T/C [6] 91.1% | viability, T/C [7] 20.1% | viability, T/C (second compound 0.316 µM, first compound 0.000316 µM) 113% | viability, T/C (second compound 0.316 µM, first compound 0.001 µM) 107% | viability, T/C (second compound 0.316 µM, first compound 0.00316 µM) 119% | viability, T/C (second compound 0.316 µM, first compound 0.01 µM) 112% | viability, T/C [8] 99% | viability, T/C [9] 19.2% | viability, T/C (second compound 1 µM, first compound 0.000316 µM) 109% | viability, T/C (second compound 1 µM, first compound 0.001 µM) 109% | viability, T/C (second compound 1 µM, first compound 0.00316 µM) 103% | viability, T/C (second compound 1 µM, first compound 0.01 µM) 108% | viability, T/C [10] 83.5% | viability, T/C [11] 16% | viability, T/C (second compound 3.16 µM, first compound 0.000316 µM) 73.4% | viability, T/C (second compound 3.16 µM, first compound 0.001 µM) 78.5% | viability, T/C (second compound 3.16 µM, first compound 0.00316 µM) 88.8% | viability, T/C (second compound 3.16 µM, first compound 0.01 µM) 83% | viability, T/C [12] 46.5% | viability, T/C (second compound 10 µM, first compound 0.000316 µM) 15.5% | viability, T/C (second compound 10 µM, first compound 0.001 µM) 11%
61.6 nM: IC50 [1]
< 0.316 nM: IC50 [5]
28.1 nM: IC50 [4]

CC(CO)NC(=O)c1cc(-c2ccc(Cl)cc2)nn(-c2cnn(C)c2)c1=O (centres undefined)
inactive: viability, T/C (compound 0.1 µM) 100% [middle of 20 runs]
> 10000 nM: IC50 (compound alone, run of 08/08/2022)

Nc1ccn(C2OC(CO)C(O)C2(F)F)c(=O)n1 (centres undefined) + CC(CO)NC(=O)c1cc(-c2ccc(Cl)cc2)nn(-c2cnn(C)c2)c1=O
active: viability, T/C [6] 4.79% | viability, T/C [7] 4.46% | viability, T/C [16] 2.56% | viability, T/C [17] 4.39% | viability, T/C [18] 3.18% | viability, T/C [19] 4.27% | viability, T/C [8] 5.24% | viability, T/C [9] 4.16% | viability, T/C [20] 4.42% | viability, T/C [21] 3.7% | viability, T/C [22] 4.85% | viability, T/C [23] 6.51% | viability, T/C [10] 5.01% | viability, T/C [11] 3.82% | viability, T/C [24] 4.34% | viability, T/C [25] 4.23% | viability, T/C [26] 4.33% | viability, T/C [27] 4.11% | viability, T/C [12] 5.21% | viability, T/C [13] 4.49% | viability, T/C [28] 4.44% | viability, T/C [29] 4.62% | viability, T/C [30] 4.8% | viability, T/C [31] 5.89% | viability, T/C [14] 4.43% | viability, T/C [15] 3.72% | viability, T/C [32] 4.66% | viability, T/C [33] 4.02% | viability, T/C [34] 5.31% | viability, T/C [35] 6.31%
< 31.6 nM: IC50 [1] | IC50 [2] | IC50 [3] | IC50 [4] | IC50 [5]

O=C(C=Cn1cnc(-c2cc(C(F)(F)F)cc(C(F)(F)F)c2)n1)NNc1cnccn1 + Cc1cncc(-c2nc(NCCc3c[nH]c4ccccc34)c3ncn(C(C)C)c3n2)c1
inactive: viability, T/C (second compound 0.1 µM, first compound 0.00949 µM) 118% | viability, T/C (second compound 0.1 µM, first compound 0.03 µM) 125% | viability, T/C (second compound 0.1 µM, first compound 0.0949 µM) 134% | viability, T/C (second compound 0.1 µM, first compound 0.3 µM) 75.5% | viability, T/C (second compound 0.1 µM, first compound 0.949 µM) 50.2% | viability, T/C (second compound 0.1 µM, first compound 3 µM) 20.5% | viability, T/C (second compound 0.316 µM, first compound 0.00949 µM) 130% | viability, T/C (second compound 0.316 µM, first compound 0.03 µM) 142% | viability, T/C (second compound 0.316 µM, first compound 0.0949 µM) 151% | viability, T/C (second compound 0.316 µM, first compound 0.3 µM) 76% | viability, T/C (second compound 0.316 µM, first compound 0.949 µM) 49.4% | viability, T/C (second compound 0.316 µM, first compound 3 µM) 19.9% | viability, T/C (second compound 1 µM, first compound 0.00949 µM) 127% | viability, T/C (second compound 1 µM, first compound 0.03 µM) 131% | viability, T/C (second compound 1 µM, first compound 0.0949 µM) 129% | viability, T/C (second compound 1 µM, first compound 0.3 µM) 67.5% | viability, T/C (second compound 1 µM, first compound 0.949 µM) 44.9% | viability, T/C (second compound 1 µM, first compound 3 µM) 19.9% | viability, T/C (second compound 3.16 µM, first compound 0.00949 µM) 116% | viability, T/C (second compound 3.16 µM, first compound 0.03 µM) 146% | viability, T/C (second compound 3.16 µM, first compound 0.0949 µM) 131% | viability, T/C (second compound 3.16 µM, first compound 0.3 µM) 57.6% | viability, T/C (second compound 3.16 µM, first compound 0.949 µM) 37.6% | viability, T/C (second compound 3.16 µM, first compound 3 µM) 21.9% | viability, T/C (second compound 10 µM, first compound 0.00949 µM) 12.7% | viability, T/C (second compound 10 µM, first compound 0.03 µM) 18.3% | viability, T/C (second compound 10 µM, first compound 0.0949 µM) 11.7%
412 nM: IC50 [4]
736 nM: IC50 [1]
active: viability, T/C (second compound 10 µM, first compound 0.3 µM) 4.08% | viability, T/C (second compound 10 µM, first compound 0.949 µM) 5.46% | viability, T/C (second compound 10 µM, first compound 3 µM) 4.69%
619 nM: IC50 [2]
< 9.49 nM: IC50 [5]
562 nM: IC50 [3]

CCN(c1cc(-c2ccc(CN3CCOCC3)cc2)cc(C(=O)NCc2c(C)cc(C)[nH]c2=O)c1C)C1CCOCC1
> 3000 nM: IC50 (curve of compound)
inactive: viability, T/C (compound 0.00949 µM) 100% (2×) and 106% | viability, T/C (compound 0.03 µM) 98.8% and 111% and 109% | viability, T/C (compound 0.0949 µM) 105% and 96.5% and 96.9% | viability, T/C (compound 0.3 µM) 110% and 109% and 112% | viability, T/C (compound 0.949 µM) 110% and 109% and 102% | viability, T/C (compound 3 µM) 117% and 104% and 107%

CC1COCCN1c1cc(C2(S(C)(=N)=O)CC2)nc(-c2ccnc3[nH]ccc23)n1 (centres undefined) + Cc1ccccc1N=Nc1ccc(NC(=O)c2ccnn2C)c(C)c1
6440 nM: IC50 [4]
5930 nM: IC50 [2]
6080 nM: IC50 [1]
6520 nM: IC50 [3]
inactive: viability, T/C [6] 96.9% | viability, T/C [7] 103% | viability, T/C [16] 97.7% | viability, T/C [17] 101% | viability, T/C [18] 79.6% | viability, T/C [19] 27.6% | viability, T/C [8] 92% | viability, T/C [9] 97.6% | viability, T/C [20] 102% | viability, T/C [21] 106% | viability, T/C [22] 72.7% | viability, T/C [23] 31.1% | viability, T/C [10] 98% | viability, T/C [11] 96.8% | viability, T/C [24] 103% | viability, T/C [25] 93.2% | viability, T/C [26] 79.5% | viability, T/C [27] 32.8% | viability, T/C [12] 99.9% | viability, T/C [13] 105% | viability, T/C [28] 91.5% | viability, T/C [29] 89.2% | viability, T/C [30] 70.3% | viability, T/C [31] 37.1% | viability, T/C [14] 97.7% | viability, T/C [15] 97.2% | viability, T/C [32] 102% | viability, T/C [33] 88.5% | viability, T/C [34] 62.5% | viability, T/C [35] 34.8%
5280 nM: IC50 [5]
